{"source": "patent US20260315499A1", "about": "“2'- {HETEROCYCLYL (ARYL/ALKYL) METHYL} - CANNABIDIOL COMPOUNDS AND PROCESS FOR PREPARATION THEREOF” (COUNCIL OF SCIENTIFIC & INDUSTRIAL RESEARCH, priority 2023, published 2026)", "key": {"[1]": {"assay": "Cell viability assay in differentiated neuronal cells (MTT), SHSY5Y", "type": "cell-based", "details": "human, read-out: % Cell viability ± SD, SHSY5Y", "from_the_text": "In the present disclosure outlined herein, a focused library of cannabidiol analogues were studied for possible neuro-protective potential employing cell line-based stress model systems which mimic the biological stress conditions in vitro (J Cell Biochem., 2018, 119(8), 6482-6491).\nHuman neuroblastoma cells (SHSY5Y) and mouse neuroblastoma cells (N2A) were procured from American Type Culture Collection (ATCC). SHSY5Y cell cultures were maintained in DMEM F12 (Invitrogen) whereas N2A were cultured in DMEM (Invitrogen) with 10% Fetal Bovine Serum (Gibco) medium, subjected to differentiation to acquire neuronal morphology (employing differentiation media DMEM-F12, 3-5% FBS, (For differentiation, low concentration of FBS was used) and 50 μM retinoic acid). Differentiated cells were later seeded into 96 well plates, at a density of 1×10^4 before being incubated for 48 hrs with the synthesized library. The exhausted culture media was substituted with new culture media containing 0.5 mg/ml MTT dye. Eventually, the OD at 490 nm excitation was measured using a 96-well plate reader. The proportion of viable cells was determined as percentage of absorbance of untreated cultures relative to control."}, "Anti BDNF": {"system": "Anti BDNF", "assay": "Survival pathway protein expression by western blotting in SHSY5Y", "type": "cell-based, human", "details": "for Relative Protein Expression Anti BDNF: A1 + Cort."}, "p TrkB 515": {"system": "p TrkB 515", "assay": "Survival pathway protein expression by western blotting in SHSY5Y", "type": "cell-based, human"}, "[2]": {"details": "A1 for multiple time spans, corticosterone"}}, "data": [{"smiles": "C=C(C)[C@@H]1CCC(C)=C[C@H]1c1c(O)cc(CCCCC)c(CN2CCOCC2)c1O", "note": "[A1, 2′-(morpholin-1-ylmethyl)-cannabidiol]", "values": [{"measurement": "viability at 48 h, 20 µM", "setting": "[1]", "value": "115.7 ± 0.71", "unit": "%"}, {"measurement": "Relative Protein Expression Anti BDNF", "setting": "Anti BDNF; 0 hr", "value": 1.029}, {"measurement": "Relative Protein Expression Anti BDNF", "setting": "Anti BDNF; 0.5 hr", "value": 14.02}, {"measurement": "Relative Protein Expression Anti BDNF", "setting": "Anti BDNF; 1 hr", "value": 28.11}, {"measurement": "Relative Protein Expression Anti BDNF", "setting": "Anti BDNF; 2 hr", "value": 51.76}, {"measurement": "Relative Protein Expression Anti BDNF", "setting": "Anti BDNF; 4 hr", "value": 41.62}, {"measurement": "expression of Anti BDNF (in words)", "setting": "Anti BDNF; [2]", "value": "remarkably increased"}, {"measurement": "Relative Protein Expression p TrkB 515", "setting": "p TrkB 515; A1 5 μM, 6 hrs", "value": 0.23}, {"measurement": "Relative Protein Expression p TrkB 515", "setting": "p TrkB 515; A1 + Cort., 0 hr", "value": 1.019}, {"measurement": "Relative Protein Expression p TrkB 515", "setting": "p TrkB 515; A1 + Cort., 0.5 hr", "value": 2.277}, {"measurement": "Relative Protein Expression p TrkB 515", "setting": "p TrkB 515; A1 + Cort., 1 hr", "value": 6.57}, {"measurement": "Relative Protein Expression p TrkB 515", "setting": "p TrkB 515; A1 + Cort., 2 hr", "value": 8.707}, {"measurement": "Relative Protein Expression p TrkB 515", "setting": "p TrkB 515; A1 + Cort., 4 hr", "value": 8.145}, {"measurement": "expression of p TrkB 515 (in words)", "setting": "p TrkB 515; [2]", "value": "remarkably increased"}]}]}
